Values quoted from earlier work in patent US12251426B2 (priority 2020, dated 2025).

Assays:
[1] = test system: macrophages; details: in vitro
[2] = biological target: SARS-CoV PLpro (Severe acute respiratory syndrome coronavirus, UniProt P0C6X7)
[3] = biological target: SARS-CoV 3CLpro (Severe acute respiratory syndrome coronavirus, UniProt P0C6X7)
[4] = biological target: SARS-CoV RdRp (Severe acute respiratory syndrome coronavirus, UniProt P0C6X7)
[5] = test system: T lymphocytes; details: in vitro, exogenous
[6] = test system: alveolar epithelial lining surface; details: acute lung injury caused by sepsis in mice
[7] = biological target: SARS-CoV-2 S-protein/ACE2 receptor interface (UniProt P0DTC2+Q9BYF1)
[8] = biological target: S2 subunit of SARS-CoV (Severe acute respiratory syndrome coronavirus, UniProt P59594)
[9] = biological target: SARS-CoV helicase protein (Severe acute respiratory syndrome coronavirus, UniProt P0C6X7)
[10] = test system: phospholipase A2 (PLA2); details: in vitro
[11] = biological target: SARS-CoV-2 PLpro (Severe acute respiratory syndrome coronavirus 2, UniProt P0DTD1)
[12] = test system: human coronavirus NL63 (HCoV-NL63); details: in vivo study (so in the source)
[13] = test system: influenza A virus; details: in vitro
[14] = normal intake
[15] = biological target: helicase (Severe acute respiratory syndrome coronavirus 2, UniProt P0DTD1)
[16] = biological target: 3CLpro (Severe acute respiratory syndrome coronavirus 2, UniProt P0DTD1)

Compound: C=C1CC[C@H](O)C/C1=C/C=C1\CCC[C@]2(C)[C@@H]([C@H](C)CCCC(C)C)CC[C@@H]12 [vitamin D, cholecalciferol]
- expression of anti-inflammatory cytokines by macrophages [1]: increases
- expression of pro-inflammatory cytokines by macrophages [1]: reduces

Compound: [Zn+2] [Zinc ions]
- inhibition of SARS-CoV PLpro [2]: can also inhibit
- inhibition of SARS-CoV 3CLpro [3]: can inhibit
- inhibition of SARS-CoV RdRp [4]: direct inhibition

Compound: O=C1O[C@H]([C@@H](O)CO)C(O)=C1O [vitamin C, ascorbic acid]
- effect on number, proliferation, and function of T lymphocytes [5]: increase
- repair of the alveolar epithelial lining surface [6]: stimulates repair

Compound: O=c1cc(-c2ccc(O)c(O)c2)oc2cc(O)cc(O)c12 [Luteolin, luteolin]
- binding affinity to S-protein/ACE2 receptor interface [7]: high binding affinity
- binding affinity to S2 subunit of SARS-CoV [8]: high binding affinity

Compound: O=c1c(O)c(-c2cc(O)c(O)c(O)c2)oc2cc(O)cc(O)c12 [myricetin]
- inhibition of SARS-CoV helicase protein [9]: inhibits

Compound: O=C(O[C@@H]1Cc2c(O)cc(O)cc2O[C@@H]1c1cc(O)c(O)c(O)c1)c1cc(O)c(O)c(O)c1 [EGCG, epigallocatechin gallate]
- inhibition of PLA2 [10]: inhibit
- inhibition of SARS-CoV 3CLpro [3]: inhibits
- binding affinity to SARS-CoV-2 PLpro [11]: strong binding affinity

Compound: O=c1c(O)c(-c2ccc(O)c(O)c2)oc2cc(O)cc(O)c12 [Quercetin, quercetin]
- binding affinity to S-protein/ACE2 receptor interface [7]: significant binding affinity
- inhibition of SARS-CoV 3CLpro [3]: inhibits

Compound: O=C(O)/C=C/c1ccc(O)c(O)c1 [Caffeic acid, caffeic acid]
- inhibition of HCoV-NL63 [12]: blocking virus attachment
- inhibitory effect on replication of influenza A virus [13]: highly inhibitory effect
- water solubility: slightly water-soluble

Compound: COc1ccc([C@@H]2CC(=O)c3c(O)cc(O[C@@H]4O[C@H](CO[C@@H]5O[C@@H](C)[C@H](O)[C@@H](O)[C@H]5O)[C@@H](O)[C@H](O)[C@H]4O)cc3O2)cc1O [Hesperidin, hesperidin]
- signs of toxicity [14]: No signs of toxicity
- binding affinity to helicase [15]: high binding affinity
- binding affinity to 3CLpro [16]: high binding affinity
